Experimental data from patent US9738661.
Read-outs that look alike come from different tables or passages of the source.

SMILES: COC(=O)[C@@H]1C[C@@H]2CN1C(=O)[C@H](C1CCCC1)NC(=O)O[C@@H]1CCC[C@H]1CCCC=Cc1nc3ccccc3cc1O2 (mixture of isomers)
- ring closure, yield of all isomers (from C=CCCC[C@@H]1CCC[C@H]1OC(=O)N[C@H](C(=O)N1C[C@H](Oc2cc3ccccc3nc2C=C)C[C@H]1C(=O)OC)C1CCCC1, rcm bond, Zhan catalyst, DCE, 10.0 mM, 90.0 °C, 1.5 h): 74%

SMILES: CCCC[C@@H]1NC(=O)OCCCCC=CCc2ccccc2O[C@@H]2C[C@@H](C(=O)OC)N(C2)C1=O
- ring closure, yield of all isomers (from C=CCCCCOC(=O)N[C@@H](CCCC)C(=O)N1C[C@H](Oc2ccccc2CC=C)C[C@H]1C(=O)OC, rcm bond, Zhan 1a catalyst, DCE, 4.9 mM, 83.0 °C, 2.0 h): 100%

SMILES: COC(=O)[C@@H]1C[C@@H]2CN1C(=O)[C@H](C(C)(C)C)NC(=O)OCCCCC=CCC1CCCCC1OC(=O)N2 (stereo partly shown)
- ring closure, yield of all isomers (from C=CCCCCOC(=O)N[C@H](C(=O)N1C[C@H](NC(=O)OC2CCCCC2CC=C)C[C@H]1C(=O)OC)C(C)(C)C, rcm bond, Zhan 1a catalyst, DCE, 5.0 mM, 83.0 °C, 1.5 h): 49.8%

SMILES: C=C1CCCCCOC(=O)N[C@@H](C2CCCCC2)C(=O)N2C[C@@H](C[C@H]2C(=O)OC)Oc2ccc3ccccc3c21
- ring closure, yield of all isomers (from C=CCCCCCOC(=O)N[C@H](C(=O)N1C[C@H](Oc2ccc3ccccc3c2Br)C[C@H]1C(=O)OC)C1CCCCC1, cc_pd bond, PdCl2(dppf)-DCM, EtOH, 50.3 mM, 78.0 °C, 48.0 h): 52.7%

SMILES: COC(=O)[C@@H]1C[C@@H]2CN1C(=O)[C@H](C(C)(C)C)NC(=O)OCCCCCC=Cc1ccccc1C#CCO2.[C-]#[O+].[C-]#[O+].[C-]#[O+].[C-]#[O+].[C-]#[O+].[C-]#[O+].[Co].[Co]
- ring closure, yield of all isomers (from C=CCCCCCOC(=O)N[C@H](C(=O)N1C[C@H](OCC#Cc2ccccc2C=C)C[C@H]1C(=O)OC)C(C)(C)C.[C-]#[O+].[C-]#[O+].[C-]#[O+].[C-]#[O+].[C-]#[O+].[C-]#[O+].[Co].[Co], rcm bond): 34.5%

SMILES: COC(=O)[C@@H]1C[C@@H]2CN1C(=O)[C@H](C(C)(C)C)NC(=O)O[C@@H]1CCC[C@H]1CCCC=Cc1nc3ccc(OC)cc3cc1O2
- ring closure, yield of all isomers (from C=CCCC[C@@H]1CCC[C@H]1OC(=O)N[C@H](C(=O)N1C[C@H](Oc2cc3cc(OC)ccc3nc2C=C)C[C@H]1C(=O)OC)C(C)(C)C, rcm bond, Zhan catalyst, DCE, 16.0 mM, 90.0 °C, 2.0 h): 84%

SMILES: COC(=O)[C@@H]1C[C@@H]2CN1C(=O)[C@H](C(C)(C)C)NC(=O)OCCCCC/C=C/c1cccnc1O2
- ring closure, yield of all isomers (from C=CCCCCCOC(=O)N[C@H](C(=O)N1C[C@H](Oc2ncccc2C=C)C[C@H]1C(=O)OC)C(C)(C)C, rcm bond, Zhan 1b catalyst, DCM, 5.03 mM, 16.0 h): 92.9%
